Data reported in patent US20120015809A1 (priority 2009, published 2012).
Structures can show the parent of a compound that is named as a salt. Where two headings read alike, the source gives them in different places.

Test system: Ralstonia solanacearum (race 1, biovar 1; tomato strain Rs5)
Settings: 72 h; for Number of colonies: mean ± standard error (n = 6)

SMILES: [H]/N=C(/N)N[C@H]1[C@H](O)[C@@H](O)[C@H](O[C@@H]2O[C@@H](C)[C@](O)(C=O)[C@H]2O[C@@H]2O[C@@H](CO)[C@H](O)[C@@H](O)[C@@H]2NC)[C@@H](N/C(N)=N\[H])[C@@H]1O [Streptomycin, streptomycin sulfate]
- Mortality (%) (200 mg kg^−1 soil): 0.9%
- Number of colonies (200 mg kg^−1 soil): 256000 ± 16500
- Mortality (%) (400 mg kg^−1 soil): 11.9%
- Number of colonies (400 mg kg^−1 soil): 227000 ± 78100
- Mortality (%) (800 mg kg^−1 soil): 21.6%
- Mortality (%) (800 mg kg^−1 soil, listed as streptomycin): 21%
- Number of colonies (800 mg kg^−1 soil): 204000 ± 82900
- Mortality (%) (1500 mg kg^−1 soil): 75.3%
- Number of colonies (1500 mg kg^−1 soil): 63800 ± 42300
